Data taken from patent US11787839B2, “Targeting α2δ-1-bound glutamate receptors for treating diseases and disorders” (Board of Regents, The University of Texas System, priority 2017, dated 2023).

Experiments:
[1] = system: NMDARs of spinally projecting PVN neurons; assay: Recordings of spinally projecting PVN neurons in WT and Cacna2d1 KO mouse slices (Ang II); type: cell-based; details: Ang II 2 μmol/L
Excerpt: Animals: 10- to 12-week-old male Sprague Dawley rats were used (Harlan Sprague Dawley, Indianapolis, Ind.) and both male and female mice (C57BL/6 genetic background) in the experiments. Two breeding pairs of Cacna2d1+/− mice were purchased from Medical Research Council (Harwell Didcot, Oxfordshire, UK), and Cacna2d1−/− (knockout) mice and Cacna2d1+/+ (wild-type) littermates were obtained by breeding the heterozygous mice. Because no sex differences were found in the effect of Ang II on synaptic NMDAR activity, electrophysiological data from male and female mice were pooled. All surgical preparation and experimental protocols were approved by the Animal Care and Use Committee of The University of Texas MD Anderson Cancer Center and conformed to the National Institutes of Health guidelines for the ethical use of animals. All efforts were made to minimize both the suffering and number of animals used.
Retrograde labeling of spinally projecting PVN neurons: Rats or mice were anesthetized with 2-3% isoflurane, and their spinal cords at the T1-T4 level were exposed through dorsal laminectomy. A fluorescent microsphere suspension (FluoSpheres, 0.04 μm; Molecular Probes, Invitrogen, Eugene, Oreg.) was pressure ejected (Nanoject II Microinjectors, Drummond Scientific Company, Broomall, Pa.) bilaterally into the IML region of the spinal cord in six separate 50-nl injections using a glass micropipette (tip diameter, 20-30 μm). The tracer injection was monitored through a surgical microscope (Li et al., 2002, 2003). The wound was closed with sutures after injection. Animals were returned to their cages for 4-7 days, which was sufficient time to permit the tracer to be retrogradely transported to the PVN. The animals were inspected daily for motor activity, signs of infection, and food and water intake.
Brain slice preparation: Four to seven days after fluorescent tracer injection, the animals were anesthetized with isoflurane and rapidly decapitated. The brain was quickly removed and placed in ice-cold artificial CSF (aCSF) saturated with 95% O2 and 5% CO2. A tissue block containing the hypothalamus was cut from the brain and glued onto the stage of a vibratome (Leica VT1000 S, Leica Biosystems Inc. Buffalo Grove, Ill.) as described previously (Li et al., 2003; Ye et al., 2011). […]
Electrophysiological recordings: The fluorescence-labeled neurons located in the medial one-third of the PVN area between the third ventricle and the fornix were selected for recording (Li et al., 2002, 2003). […]
The miniature excitatory postsynaptic currents (mEPSCs) were recorded in the presence of 1 μmol/L tetrodotoxin (TTX) and 20 μmol/L bicuculline at a holding potential of −60 mV (Li et al., 2003; Ye et al., 2011). […]

SHRs = assay: PVN microinjection and recording of ABP and RSNA in SHRs; type: in vivo, rat; details: 50 pmol
Procedure: PVN microinjection and recording of renal sympathetic nerve activity: Rats were anaesthetized via i.p. administration of a mixture of α-chloralose (60 mg kg-1) and urethane (800 mg kg-1) and mechanically ventilated with trachea cannulation. The arterial blood pressure (ABP) was monitored via a catheter placed in the left femoral artery, and heart rate (HR) was extracted from the pulsatile pressure wave. A retroperitoneal incision was made, and a branch of the left renal postganglionic sympathetic nerve was isolated under a surgical microscope. The renal sympathetic nerve was cut distally to ensure that afferent activity was not recorded. The ABP, HR and renal sympathetic nerve activity (RSNA) were recorded using a 1401-PLUS analogue-to-digital converter and Spike2 system (Cambridge Electronic Design, Cambridge, UK). After the brain was exposed, a microinjection pipette (tip diameter 20-30 μm) was advanced into the PVN in accordance with the stereotactic co-ordinates: 1.6-2.0 mm caudal to the bregma, 0.5 mm lateral to the midline and 7.0-7.5 mm ventral to the dura. The microinjection was performed using a Nanoject II (Drummond Scientific Company) and monitored using a surgical microscope as described previously (Li & Pan, 2006, 2007; Qiao et al. 2017). […] At the end of each experiment, the electrical background noise was measured after the proximal end of renal nerve was crushed at the end of each experiment. To determine the location of the injection site and diffusion of the drugs in the PVN, 5% rhodamine-labelled fluorescent microspheres (0.04 μm; Molecular Probes) were included in the injection solution. Rats were excluded from the data analysis if the microinjections were misplaced outside the PVN.

[2] = system: rats treated with the Cacna2d1 vector; assay: Withdrawal thresholds in rats overexpressing Cacna2d1 (lentiviral vector); type: in vivo, rat; details: for pain hypersensitivity induced by Cacna2d1 overexpression (tactile and pressure withdrawal thresholds): Cacna2d1 vector rats, AP5, peptide, gabapentin intrathecal, memantine systemic

Substance | amplitude of puff NMDA-elicited currents ([1]; Cacna2d1−/− mice) | frequency of mEPSCs ([1]; Cacna2d1−/− mice) | NMDAR-mediated frequency of mEPSCs ([1]; wild-type mice) | amplitude of puff NMDA-elicited currents ([1]; wild-type mice) | ABP and RSNA (SHRs; 50 nL bilaterally into the PVN) | duration of the effect on the mean ABP and RSNA (SHRs; 50 nL into the PVN) | pain hypersensitivity induced by Cacna2d1 overexpression (tactile and pressure withdrawal thresholds) [2] | pain hypersensitivity induced by Cacna2d1 overexpression (tactile and pressure withdrawal thresholds) ([2]; listed as a2d-1Tat peptide) | withdrawal thresholds in rats treated with the control vector ([2]; control vector rats, intrathecal injection)
Ang II: angiotensin II, obtained from Sigma (DRVYIHPF; Angiotensin-2; UniProt P01019 25-32, looked up) | had no effect | had no effect | markedly increased | markedly increased |  |  |  |  | 
YGRKKRRQRRRVSGLNPSLWSIFGLQFILLWLVSGSRHYLW (a2d1 peptide) [α2δ-1Tat peptide, 30-amino-acid peptide mimicking the C-terminal domain of α2δ-1 fused to the cell-penetrating peptide Tat] |  |  |  |  | significantly decreased | more than 60 min | attenuates | similarly reversed | had no effect
